Experiment [1] deals with T1, COX‐1 (Mus musculus, UniProt P22437).
T1 construct: endogenous in cells; host or cells: J774 murine monocyte/macrophage cell line
T1 sequence (P22437 27-602): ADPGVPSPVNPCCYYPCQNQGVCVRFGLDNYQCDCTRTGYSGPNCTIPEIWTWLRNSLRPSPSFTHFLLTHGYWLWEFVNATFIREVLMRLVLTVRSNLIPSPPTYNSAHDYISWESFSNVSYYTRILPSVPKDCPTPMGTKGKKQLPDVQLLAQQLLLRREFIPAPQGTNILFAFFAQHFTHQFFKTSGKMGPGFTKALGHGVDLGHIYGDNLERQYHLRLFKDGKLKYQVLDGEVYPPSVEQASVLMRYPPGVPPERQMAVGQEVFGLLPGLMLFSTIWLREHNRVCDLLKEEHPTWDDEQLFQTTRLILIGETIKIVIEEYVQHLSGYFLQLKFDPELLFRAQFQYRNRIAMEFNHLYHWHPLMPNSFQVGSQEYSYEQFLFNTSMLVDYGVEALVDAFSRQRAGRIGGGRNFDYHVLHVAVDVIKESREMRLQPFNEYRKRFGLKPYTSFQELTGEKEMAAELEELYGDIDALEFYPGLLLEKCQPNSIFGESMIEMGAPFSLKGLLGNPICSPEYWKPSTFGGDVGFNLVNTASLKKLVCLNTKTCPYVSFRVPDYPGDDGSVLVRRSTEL
In words: COX‐1 inhibition of PGE2 production, arachidonic acid-stimulated J774 murine macrophage assay. It counts as cell-based. Particulars: J774 cells, 15 μM arachidonic acid, PGE2 by EIA, mean of three experiments. Here is the method: All tested compounds didn’t inhibit the production of PGE2 via COX‐1 in AA‐stimulated J774 macrophages.
(§1) The cell line was grown in DMEM supplemented with 2 mM glutamine, 25 mM HEPES, 100 units mL^–1 penicillin, 100 μg mL^–1 streptomycin, 10% fetal bovine serum (FBS), and 1.2% sodium pyruvate. Cells were plated in 24‐well culture plates at a density of 2.5 × 10^5 cells mL^–1 and allowed to adhere at 37 °C in 5% CO2 for 2 h. Immediately before the experiments, the culture medium was replaced with fresh medium, and cells were stimulated as previously described.^[ [64] ^] The evaluation of COX‐1 inhibitory activity was achieved by pretreating cells with test compounds (10 μM) for 15 min and then incubating them at 37 °C for 30 min with 15 μM arachidonic acid to activate the constitutive COX. At the end of the incubation, the supernatants were collected to measure PGE2 levels by an enzyme immuno‐assay (EIA). To evaluate COX‐2 activity, cells were stimulated for 24 h with Escherichia coli lipopolysaccharide (LPS, 10 μg mL^–1) to induce COX‐2, in the absence or presence of test compounds (0.001–10 μM). The supernatants were collected for the measurement of PGE2 by means of EIA. Celecoxib was utilized as a reference compound for the selectivity index. Triplicate wells were used for the various treatment conditions in the cell culture assay throughout the experiments. Results are expressed as the mean of three experiments of the % inhibition of PGE2 production by test compounds with respect to control samples. Data fit was obtained using the sigmoidal dose–response equation (variable slope) (GraphPad software). The IC50 values were calculated by the GraphPad Instat program (GraphPad software).

Experiment [2] addresses T2, COX‐2 (Mus musculus, UniProt Q05769).
T2 construct: endogenous in cells; host or cells: J774 murine monocyte/macrophage cell line, LPS-stimulated
T2 sequence (Q05769 18-604): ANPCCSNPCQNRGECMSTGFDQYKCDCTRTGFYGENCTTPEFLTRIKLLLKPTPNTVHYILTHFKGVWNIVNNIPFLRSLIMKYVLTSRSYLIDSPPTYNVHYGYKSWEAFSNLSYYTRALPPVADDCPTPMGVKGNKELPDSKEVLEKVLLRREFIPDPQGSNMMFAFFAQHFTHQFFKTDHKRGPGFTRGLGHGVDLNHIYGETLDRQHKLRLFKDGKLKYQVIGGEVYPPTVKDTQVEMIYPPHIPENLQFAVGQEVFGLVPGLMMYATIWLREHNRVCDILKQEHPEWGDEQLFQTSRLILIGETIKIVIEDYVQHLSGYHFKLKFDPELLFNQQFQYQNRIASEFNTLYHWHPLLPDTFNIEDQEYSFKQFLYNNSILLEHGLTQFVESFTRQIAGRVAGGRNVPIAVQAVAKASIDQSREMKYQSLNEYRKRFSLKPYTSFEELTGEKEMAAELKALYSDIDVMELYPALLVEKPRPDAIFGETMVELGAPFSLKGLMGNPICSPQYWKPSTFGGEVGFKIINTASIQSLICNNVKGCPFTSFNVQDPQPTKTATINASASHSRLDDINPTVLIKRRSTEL
As to the kind of experiment: COX‐2 inhibition of PGE2 production, LPS-stimulated J774 murine macrophage assay. As to conditions: for IC50: J774 cells, LPS 10 μg/mL 24 h, PGE2 by EIA, mean of three experiments; for COX‐1/COX‐2 [SI]: selectivity index IC50(COX‐1)/IC50(COX‐2). The experiment is classed as cell-based. Here is the method: This required that hydrolysis was mandatory to obtain the possible release of bioactive compounds from the macromolecular ester prodrugs. […] All these considerations led us to consider the importance of the possible hydrolysis process, which could lead to release the bioactive compounds from the macromolecular ester prodrug 13a.
as §1

The target in experiment [3] is T1, COX‐1. As to conditions: J774 murine macrophage assay, cited from earlier work.
In experiment [4] the target is T2, COX‐2. Particulars: ref [24], cited from earlier work.

Where two headings read alike, the source gives them in different places. A value given as a limit tells only on which side of the number the result lay.

Data on six compounds can be found in paper PMC12711161, “Design, Synthesis, and Biological Characterization of Macromolecular Ester Prodrugs of a Selective Cyclooxygenase‐2 Inhibitor” (Chemmedchem, 2025).

As to `COc1cc(/C=C/C(=O)O)ccc1OCc1cn(CCOCCOCCOCCOCCOCCOCCC(=O)OCCOCCc2cc(-c3ccc(S(C)(=O)=O)cc3)n(-c3ccc(F)cc3)c2C)nn1` [Compound 13b, (E)‐3‐(4‐((1‐(27‐(1‐(4‐Fluorophenyl)‐2‐methyl‐5‐(4‐(methylsulfonyl)phenyl)‐1H‐pyrrol‐3‐yl)‐21‐oxo‐3,6,9,12,15,18,22,25‐octaoxaheptacosyl)‐1H‐1,2,3‐triazol‐4‐yl)methoxy)‐3‐methoxyphenyl)acrylic acid], the IC50 in experiment [1] was > 10000 nM; in experiment [2], 50 nM. Further, the “COX‐1/COX‐2 [SI]” value in experiment [2] was >200.
On the same counts, the results for `Cc1c(CCOCCOC(=O)CCOCCOCCOCCOCCOCCOCCN=[N+]=[N-])cc(-c2ccc(S(C)(=O)=O)cc2)n1-c1ccc(F)cc1` [Compound 14, 2‐(2‐(1‐(4‐Fluorophenyl)‐2‐methyl‐5‐(4‐(methylsulfonyl)phenyl)‐1H‐pyrrol‐3‐yl)ethoxy)ethyl 1‐azido‐3,6,9,12,15,18‐hexaoxahenicosan‐21‐oate] are > 10000 nM, 15 nM and >666.7.
With `Cc1c(CCOCCOCCOCCOCCOCCOCCN=[N+]=[N-])cc(-c2ccc(S(C)(=O)=O)cc2)n1-c1ccc(F)cc1` [Compound 19, 3‐(20‐Azido‐3,6,9,12,15,18‐hexaoxaicosyl)‐1‐(4‐fluorophenyl)‐2‐methyl‐5‐(4‐(methylsulfonyl)phenyl)‐1H‐pyrrole], the IC50 in experiment [1] is > 10000 nM. Further, in experiment [2], the IC50 is 500 nM and the “COX‐1/COX‐2 [SI]” value is reported as >20.
Regarding `Cc1c(CCO)cc(-c2ccc(S(C)(=O)=O)cc2)n1-c1ccc(F)cc1` [Compound 21], the figures for the half-maximal inhibitory concentration (IC50) in experiment [3] (ref [24]) and in experiment [4] (J774 murine macrophage assay) were > 10000 nM and 70 nM, respectively. Besides, the “COX‐1/COX‐2 [SI]” value in experiment [4] (selectivity index IC50(COX‐1)/IC50(COX‐2)) is recorded as >142.8.
In the case of `COc1cc(/C=C/C(=O)O)ccc1OCc1cn(CCOCCOCCOCCOCCOCCOCCc2cc(-c3ccc(S(C)(=O)=O)cc3)n(-c3ccc(F)cc3)c2C)nn1` [Compound 12b, (E)‐3‐(4‐((1‐(20‐(1‐(4‐Fluorophenyl)‐2‐methyl‐5‐(4‐(methylsulfonyl)phenyl)‐1H‐pyrrol‐3‐yl)‐3,6,9,12,15,18‐hexaoxaicosyl)‐1H‐1,2,3‐triazol‐4‐yl)methoxy)‐3‐methoxyphenyl)acrylic acid], the IC50 in experiment [1] and in experiment [2] was > 10000 nM in each case. The “inhibition of PGE2 production via COX‐2 (in words)” value in experiment [2] (LPS‐stimulated macrophages) is “completely devoid of COX‐2 inhibitory activity”.
Regarding `Cc1c(CCOCCO)cc(-c2ccc(S(C)(=O)=O)cc2)n1-c1ccc(F)cc1` [Compound 7b], the IC50 in experiment [3] (ref [27]) was > 10000 nM.

The IC50 is the concentration that gives 50% inhibition.
